# In ChEMBL document CHEMBL2429852, “Synthesis and evaluation of new chalcones, derived pyrazoline and cyclohexenone derivatives as potent antimicrobial, antitubercular and antileishmanial agents” (Med Chem Res, 2013):
# Key:
# [1] = test system: Aspergillus niger; test: Antifungal activity against Aspergillus niger MTCC 282 assessed as growth inhibition by broth microdilution method; format: functional
# [2] = test system: Escherichia coli; test: Antibacterial activity against Escherichia coli MTCC 442 assessed as growth inhibition by broth microdilution method; format: functional
# [3] = test system: Streptococcus pyogenes; test: Antibacterial activity against Streptococcus pyogenes MTCC 443 assessed as growth inhibition by broth microdilution method; format: functional
# [4] = test system: Pseudomonas aeruginosa; test: Antibacterial activity against Pseudomonas aeruginosa MTCC 2488 assessed as growth inhibition by broth microdilution method; format: functional
# [5] = test system: Candida albicans; test: Potency index, ratio of griseofulvin MIC to compound MIC for Candida albicans MTCC 227; format: functional
# [6] = test system: Aspergillus clavatus; test: Antifungal activity against Aspergillus clavatus MTCC 1323 assessed as growth inhibition by broth microdilution method; format: functional
# [7] = test system: Mycobacterium tuberculosis; test: Antitubercular activity against Mycobacterium tuberculosis H37Rv assessed as growth inhibition after 12 to 28 days by Lowenstein-Jensen agar method; format: functional; conditions: for MIC: Mycobacterium tuberculosis, H37Rv
# [8] = test system: Staphylococcus aureus; test: Antibacterial activity against Staphylococcus aureus MTCC 96 assessed as growth inhibition by broth microdilution method; format: functional
# [9] = test system: Candida albicans; test: Antifungal activity against Candida albicans MTCC 227 assessed as growth inhibition by broth microdilution method; format: functional
# [10] = test system: Leishmania braziliensis; test: Antileishmanial activity against promastigote stage of Leishmania braziliensis H3 assessed as parasite growth inhibition after 72 hrs by Neubauer chamber counting method; format: functional, organism-based
# [11] = test system: Staphylococcus aureus; test: Potency index, ratio of ampicillin MIC to compound MIC for Staphylococcus aureus MTCC 96; format: functional
# [12] = test system: Escherichia coli; test: Potency index, ratio of ampicillin MIC to compound MIC for Escherichia coli MTCC 442; format: functional
# [13] = test system: Streptococcus pyogenes; test: Potency index, ratio of ampicillin MIC to compound MIC for Streptococcus pyogenes MTCC 443; format: functional
# [14] = Leishmania braziliensis, H3, 72 h, read-out: IC50
smiles,measurement,setting,value
O=[N+]([O-])c1cccc(C2=NNC(c3ccc4c(c3)OCO4)C2)c1 (stereo not drawn),MIC99,[1],1000 µg/mL
same,MIC99,[2],100 µg/mL
same,MIC99,[3],125 µg/mL
same,MIC99,[4],200 µg/mL
same,Ratio,[5],2
same,MIC99,[6],1000 µg/mL
same,growth inhibition (GI),[7],98%
same,MIC,[7],500 µg/mL
same,MIC99,[8],100 µg/mL
same,MIC99,[9],250 µg/mL
same,IC50,[10],Not Active
COc1ccc(C2CC(c3cccc([N+](=O)[O-])c3)=NN2C(C)=O)cc1 (stereo not drawn),MIC99,[1],1000 µg/mL
same,MIC99,[2],250 µg/mL
same,MIC99,[3],250 µg/mL
same,MIC99,[4],250 µg/mL
same,MIC99,[6],1000 µg/mL
same,growth inhibition (GI),[7],99%
same,MIC,[7],250 µg/mL
same,MIC99,[8],250 µg/mL
same,MIC99,[9],1000 µg/mL
same,IC50,[10],Not Active
COc1ccc(C2CC(c3cccc([N+](=O)[O-])c3)=NN2)cc1 (stereo not drawn),MIC99,[1],1000 µg/mL
same,MIC99,[2],62.5 µg/mL
same,MIC99,[3],500 µg/mL
same,MIC99,[4],100 µg/mL
same,Ratio,[5],2
same,MIC99,[6],1000 µg/mL
same,growth inhibition (GI),[7],99%
same,MIC,[7],250 µg/mL
same,MIC99,[8],500 µg/mL
same,MIC99,[9],250 µg/mL
same,IC50,[10]; [14],> 100 µM
COc1ccc(C2CC(c3cccc([N+](=O)[O-])c3)=NN2C(C)=O)cc1OC (stereo not drawn),MIC99,[1],500 µg/mL
same,MIC99,[2],500 µg/mL
same,MIC99,[3],125 µg/mL
same,MIC99,[4],250 µg/mL
same,Ratio,[5],2
same,MIC99,[6],500 µg/mL
same,growth inhibition (GI),[7],99%
same,MIC,[7],500 µg/mL
same,MIC99,[8],125 µg/mL
same,MIC99,[9],200 µg/mL
same,IC50,[10],Not Active
CCOC(=O)C1C(=O)C=C(c2cccc([N+](=O)[O-])c2)CC1c1cc(OC)c(OC)c(OC)c1 (stereo not drawn),MIC99,[1],> 1000 µg/mL
same,MIC99,[2],200 µg/mL
same,MIC99,[3],200 µg/mL
same,MIC99,[4],200 µg/mL
same,MIC99,[6],> 1000 µg/mL
same,growth inhibition (GI),[7],99%
same,MIC,[7],250 µg/mL
same,MIC99,[8],200 µg/mL
same,MIC99,[9],100 µg/mL
same,IC50,[10],Not Active
CC1(C)S[C@@H]2[C@H](NC(=O)[C@H](N)c3ccccc3)C(=O)N2[C@H]1C(=O)O [AMPICILLIN],MIC99,[2],100 µg/mL
same,MIC99,[3],100 µg/mL
same,MIC99,[4],100 µg/mL
same,MIC99,[8],250 µg/mL
O=C(/C=C/c1ccc2ccccc2c1)c1cccc([N+](=O)[O-])c1,MIC99,[1],1000 µg/mL
same,MIC99,[2],62.5 µg/mL
same,MIC99,[3],125 µg/mL
same,MIC99,[4],200 µg/mL
same,Ratio,[11],2
same,MIC99,[6],1000 µg/mL
same,growth inhibition (GI),[7],98%
same,MIC,[7],500 µg/mL
same,MIC99,[8],100 µg/mL
same,MIC99,[9],500 µg/mL
same,Ratio,[12],2
same,IC50,[10],Not Active
COc1ccc(/C=C/C(=O)c2cccc([N+](=O)[O-])c2)cc1,MIC99,[1],200 µg/mL
same,MIC99,[2],200 µg/mL
same,MIC99,[3],500 µg/mL
same,MIC99,[4],200 µg/mL
same,MIC99,[6],200 µg/mL
same,growth inhibition (GI),[7],98%
same,MIC,[7],1000 µg/mL
same,MIC99,[8],500 µg/mL
same,MIC99,[9],1000 µg/mL
same,IC50,[10],Not Active
CC(=O)N1N=C(c2cccc([N+](=O)[O-])c2)CC1c1ccc2ccccc2c1 (stereo not drawn),MIC99,[1],> 1000 µg/mL
same,MIC99,[2],250 µg/mL
same,MIC99,[3],100 µg/mL
same,MIC99,[4],250 µg/mL
same,Ratio,[5],2
same,MIC99,[6],> 1000 µg/mL
same,growth inhibition (GI),[7],98%
same,MIC,[7],1000 µg/mL
same,MIC99,[8],100 µg/mL
same,MIC99,[9],250 µg/mL
same,IC50,[10],Not Active
CC(=O)N1N=C(c2cccc([N+](=O)[O-])c2)CC1c1ccc2c(c1)OCO2 (stereo not drawn),MIC99,[1],500 µg/mL
same,MIC99,[2],250 µg/mL
same,MIC99,[3],250 µg/mL
same,MIC99,[4],200 µg/mL
same,MIC99,[6],500 µg/mL
same,growth inhibition (GI),[7],99%
same,MIC,[7],250 µg/mL
same,MIC99,[8],250 µg/mL
same,MIC99,[9],500 µg/mL
same,IC50,[10],Not Active
CC(=O)N1N=C(c2cccc([N+](=O)[O-])c2)CC1/C=C/c1ccccc1 (stereo not drawn),MIC99,[1],> 1000 µg/mL
same,MIC99,[2],62.5 µg/mL
same,MIC99,[3],25 µg/mL
same,MIC99,[4],100 µg/mL
same,Ratio,[5],2
same,MIC99,[6],> 1000 µg/mL
same,growth inhibition (GI),[7],98%
same,MIC,[7],250 µg/mL
same,Ratio,[13],5
same,MIC99,[8],250 µg/mL
same,MIC99,[9],500 µg/mL
same,Ratio,[12],4
same,IC50,[10],Not Active
COc1ccc(/C=C/C(=O)c2cccc([N+](=O)[O-])c2)cc1OC,MIC99,[1],> 1000 µg/mL
same,MIC99,[2],100 µg/mL
same,MIC99,[3],200 µg/mL
same,MIC99,[4],200 µg/mL
same,MIC99,[6],> 1000 µg/mL
same,growth inhibition (GI),[7],98%
same,MIC,[7],500 µg/mL
same,MIC99,[8],200 µg/mL
same,MIC99,[9],500 µg/mL
same,IC50,[10]; [14],> 100 µM
